The NIST ThermoML archive (doi:10.1021/je049776w)

Experiments:
[1] = 101.3 kPa, Liquid
[2] = xn = mol fraction of the nth substance listed; conditions: 101.3 kPa, Liquid

CCCCCCC [heptane]
[1]
Conditions	mass density [kg/m3]	viscosity [mPa·s]
298.15 K	679.9	0.4009
303.15 K	675.65	0.375
313.15 K	667.08	0.3373
323.15 K	658.37	0.3074
333.15 K	649.53	0.2793
343.15 K	640.47	0.2541

Cc1ccc(C)cc1 [1,4-dimethylbenzene] + C1CCCCC1
[2]
Conditions	mass density, 298.15 K [kg/m3]	mass density, 303.15 K [kg/m3]	mass density, 313.15 K [kg/m3]	mass density, 323.15 K [kg/m3]	mass density, 333.15 K [kg/m3]	viscosity, 298.15 K [mPa·s]	viscosity, 303.15 K [mPa·s]	viscosity, 313.15 K [mPa·s]	viscosity, 323.15 K [mPa·s]	viscosity, 333.15 K [mPa·s]
x1 = 0.0809	779.58	774.92	765.5	755.99	746.36	0.8232	0.7475	0.6401	0.5594	0.4874
x1 = 0.1655	786.02	781.39	772.07	762.67	753.14	0.757	0.6992	0.5981	0.526	0.4646
x1 = 0.2537	792.96	788.36	779.14	769.83	760.42	0.7177	0.6524	0.5739	0.5037	0.452
x1 = 0.3457	800.58	796.02	786.88	777.65	768.33	0.6773	0.6311	0.5481	0.4861	0.4338
x1 = 0.4422	808.68	804.15	795.1	785.98	776.74	0.6575	0.6059	0.5313	0.4722	0.423
x1 = 0.5431	817.38	812.89	803.91	794.86	785.72	0.6326	0.5868	0.5185	0.4638	0.4186
x1 = 0.6491	826.54	822.09	813.16	804.19	795.14	0.6219	0.5787	0.5108	0.458	0.4131
x1 = 0.7603	836.16	831.71	822.86	813.98	805	0.6175	0.5726	0.511	0.4569	0.4109
x1 = 0.8771	846.17	841.79	833	824.18	815.3	0.6139	0.5701	0.5052	0.4567	0.4124
x1 = 1	856.7	852.35	843.64	834.9	826.09	0.6162	0.5715	0.508	0.4599	0.4298

CCCCCCC [heptane] + Cc1ccc(C)cc1
[2], x2 = 0
Conditions	mass density [kg/m3]	viscosity [mPa·s]
298.15 K	679.9	0.4009
303.15 K	675.65	0.375
313.15 K	667.08	0.3373
323.15 K	658.37	0.3074
333.15 K	649.53	0.2793
343.15 K	640.47	0.2541

CN1CCCC1=O [N-methylpyrrolidone]
[1]
Conditions	mass density [kg/m3]	viscosity [mPa·s]
303.15 K	1023.47	1.554
313.15 K	1014.55	1.332
323.15 K	1005.66	1.16
333.15 K	996.71	1.022
343.15 K	987.75	0.9084
353.15 K	978.76	0.8127

C1CCCCC1 [cyclohexane] + Cc1ccc(C)cc1
[2], x2 = 0
Conditions	mass density [kg/m3]	viscosity [mPa·s]
298.15 K	773.82	0.9027
303.15 K	769.1	0.8205
313.15 K	759.61	0.6963
323.15 K	749.98	0.5984
333.15 K	740.23	0.5195

CCCCCCCC [octane] + Cc1ccc(C)cc1
[2], x2 = 0
Conditions	mass density [kg/m3]	viscosity [mPa·s]
298.15 K	699.9	0.5206
303.15 K	695.72	0.4837
313.15 K	687.5	0.4306
323.15 K	679.37	0.3864
333.15 K	671.02	0.3495
343.15 K	662.54	0.3139
353.15 K	653.8	0.284

CCCCCCCC [octane]
[1]
Conditions	mass density [kg/m3]	viscosity [mPa·s]
298.15 K	699.9	0.5206
303.15 K	695.72	0.4837
313.15 K	687.5	0.4306
323.15 K	679.37	0.3864
333.15 K	671.02	0.3495
343.15 K	662.54	0.3139
353.15 K	653.8	0.284

Cc1ccc(C)cc1 [1,4-dimethylbenzene]
[1]
Conditions	mass density [kg/m3]	viscosity [mPa·s]
298.15 K	856.7	0.6162
303.15 K	852.35	0.5715
313.15 K	843.64	0.508
323.15 K	834.9	0.4599
333.15 K	826.09	0.4298
343.15 K	817.17	0.3783
353.15 K	808.22	0.3382

C1CCCCC1 [cyclohexane]
[1]
Conditions	mass density [kg/m3]	viscosity [mPa·s]
298.15 K	773.82	0.9027
303.15 K	769.1	0.8205
313.15 K	759.61	0.6963
323.15 K	749.98	0.5984
333.15 K	740.23	0.5195

CN1CCCC1=O [N-methylpyrrolidone] + Cc1ccc(C)cc1
[2], x2 = 0
Conditions	mass density [kg/m3]	viscosity [mPa·s]
303.15 K	1023.47	1.554
313.15 K	1014.55	1.332
323.15 K	1005.66	1.16
333.15 K	996.71	1.022
343.15 K	987.75	0.9084
353.15 K	978.76	0.8127
